The values that follow are results of earlier work, collected in patent US20040248775A1, “Methods for screening inhibitors of apoptosis” (Wyeth, priority 2003, published 2004).

Molecules are shown by their SMILES.

The target of this data set is T1, Apaf-1 (Homo sapiens, UniProt O14727).
T1 sequence (O14727 1-1248): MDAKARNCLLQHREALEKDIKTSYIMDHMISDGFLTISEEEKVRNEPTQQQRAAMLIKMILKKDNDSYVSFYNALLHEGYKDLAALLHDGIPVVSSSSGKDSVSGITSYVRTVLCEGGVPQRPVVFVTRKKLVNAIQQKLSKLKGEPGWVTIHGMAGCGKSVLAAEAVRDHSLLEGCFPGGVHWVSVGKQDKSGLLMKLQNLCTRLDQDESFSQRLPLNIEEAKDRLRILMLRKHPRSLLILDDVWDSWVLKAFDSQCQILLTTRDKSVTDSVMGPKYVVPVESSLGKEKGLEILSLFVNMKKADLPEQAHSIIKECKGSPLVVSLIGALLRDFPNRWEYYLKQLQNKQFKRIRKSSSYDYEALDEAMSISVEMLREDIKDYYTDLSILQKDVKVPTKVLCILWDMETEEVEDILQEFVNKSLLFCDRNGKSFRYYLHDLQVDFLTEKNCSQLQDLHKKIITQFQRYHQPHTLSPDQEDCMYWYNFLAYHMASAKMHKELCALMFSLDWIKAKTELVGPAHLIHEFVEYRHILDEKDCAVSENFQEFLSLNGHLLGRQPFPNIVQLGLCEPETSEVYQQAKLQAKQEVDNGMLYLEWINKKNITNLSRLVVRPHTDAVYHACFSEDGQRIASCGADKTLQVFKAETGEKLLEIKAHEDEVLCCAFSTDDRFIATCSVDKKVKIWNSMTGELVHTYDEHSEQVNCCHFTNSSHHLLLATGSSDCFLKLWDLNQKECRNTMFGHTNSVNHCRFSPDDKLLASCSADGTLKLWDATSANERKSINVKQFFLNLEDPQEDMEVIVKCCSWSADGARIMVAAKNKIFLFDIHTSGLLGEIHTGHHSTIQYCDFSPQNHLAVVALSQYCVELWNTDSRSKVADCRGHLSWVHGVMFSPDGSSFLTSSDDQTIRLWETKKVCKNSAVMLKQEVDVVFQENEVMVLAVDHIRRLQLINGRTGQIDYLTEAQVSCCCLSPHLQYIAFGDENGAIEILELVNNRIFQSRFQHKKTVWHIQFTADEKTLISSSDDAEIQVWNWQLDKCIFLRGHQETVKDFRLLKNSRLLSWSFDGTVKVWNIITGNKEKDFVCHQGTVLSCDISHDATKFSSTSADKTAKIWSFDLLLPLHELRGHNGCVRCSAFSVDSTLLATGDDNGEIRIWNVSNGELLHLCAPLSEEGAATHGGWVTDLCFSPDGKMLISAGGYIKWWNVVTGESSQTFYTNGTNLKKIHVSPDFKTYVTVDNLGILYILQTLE
To be noted: Jiang et al., 2000; cited from earlier work.

Regarding `Nc1ncnc2c1ncn2[C@H]1C[C@H](O)[C@@H](COP(=O)(O)OP(=O)(O)OP(=O)(O)O)O1` [dATP], the “affinity of purine nucleotides for Apaf-1” value is “greatest affinity”.
